According to patent US4138485A, “Phenylalanine derivatives” (Kyowa Hakko Kogyo Kabushiki Kaisha, priority 1976, dated 1979):
Read-outs that look alike come from different tables or passages of the source.

Key:
Acute toxicity in mice = conditions: in vivo, mouse
Experimental: (§1) (1) Acute toxicity and tonic convulsion in hind paw:
(§2) The acute toxicity and tonic convulsion occured by stimulus by hand touch were determined in the following manner to give the results shown in Table 2.
(a) Acute toxicity in mice:
38 Groups, each consisting of 5 mice (male dd-strain, weight -- 18 to 24 g), were used for the test and control groups. The compounds shown in Table 2 were administered orally or intraperitoneally to the mice. After one week, the survival ratio was measured.

Mouse = experiment: Tonic convulsion of hind paw of mice (stimulus by hand touch); format: in vivo, mice (male dd-strain); conditions: oral, D = 1000 mg/kg, 30 to 360 minutes
Experimental: as §1, §2
(c) Tonic convulsion of hind paw of mice:
38 Groups, each consisting of 5 mice (male dd-strain, weight -- 18 to 24 g), were used for the test and control groups. The compounds shown in Table 2 were orally administered to the mice. At 30, 60, 120, 180 and 360 minutes after the administration, stimulus by hand touch was given to the mice and the tonic convulsion was observed.

[1] = test system: hyperlipemia induced by Triton; experiment: Cholesterol-lowering activity on hyperlipemia induced by Triton in mice; format: in vivo, mice (male dd-strain); conditions: Mus musculus, read-out: Ratio of the reduction of cholesterol
Experimental: (2) Cholesterol-Lowering activity on hyperlipemia induced by Triton in mice:
38 Groups, each consisting of 9 mice (male dd-strain, weight -- 19 to 21 g), were used for the test and control groups. […] Immediately after the administration and also after 20 hours from the administration of Triton, the mice were orally administered with 100 mg/kg of the compound shown in Table 3. 43 hours after the administration of Triton, the blood samples were collected by decapitation and then the corpuscle was removed by centrifugation. Cholesterol in the serum was determined by Zurkowski's method modified by Shibata (color of the test solution was developed by using sulfoalicyclic acid, acetic acid and sulfuric acid and the optical density of the solution was determined at 620 mμ.

Acute toxicity in rats = conditions: rat, in vivo
Experimental: as §1, §2
(b) Acute toxicity in rats:
28 Groups, each consisting of 5 rats (male Wistar strain, weight -- 200 g), were used for the test and control groups. The compounds shown in Table 2 were orally administered to the rats. After one week, the survival ratio was measured.

Cholesterol in the serum = experiment: Cholesterol-lowering activity on normal rats of Wistar strain (serum cholesterol, liver weight); format: in vivo, rats (male Wistar strain); conditions: 0.3% in diet; for B - Ratio of decrease of liver weight: continuous administration for 4 days; for C - Ratio of decrease of cholesterol / D - Ratio of increase of liver weight: continuous administration for 14 days
Experimental: (3) Cholesteral-lowering activity on normal rats of Wistar strain:
(i) 22 Groups, each consisting of 5 rats (male Wistar strain, weight -- 150 to 180 g) were used for the test and control groups. After this, the blood samples were collected by decapitation and then the corpuscle was removed by centrifugation. Cholesterol in the serum was determined by Zurkowski's method modified by Shibata and also the liver was excised and weighed. The results are shown in Table 4 wherein the ratio of 100% denotes the amount of chloresterol and the weight of the liver of normal rats fed with powdery diet without the addition of the compound.

[2] = test system: Triglyceride, phospholipid and free fatty acid in the serum; experiment: Determination of triglyceride, phospholipid and free fatty acid in the serum of normal rats; format: in vivo, rats (Wistar strain); conditions: for A - Ratio of decrease of triglyceride / B - Ratio of decrease of phospholipid / C - Ratio of decrease of free fatty acid: continuous administration for 4 days; for lowering activity on lipids other than cholesterol (in words): normal rats, 4 days
Experimental: (ii) Determination of triglyceride, phospholipid and free fatty acid in the serum of normal rats of Wistar strain: Clofibrate and Compounds 1 and 2 were tested in a similar manner to that described in (i). Triglyceride, phospholipid and free fatty acid in the serum were determined in the following manner to give the results shown in Table 5. (a) Determination of triglyceride: Triglyceride was determined by acetylacetone method [Kazuo Matsumiya et al "Rinsho Byori", Vol. 18, page 383 (1970), Japan] in the following manner. Isopropyl alcohol was added to the test solution of the serum to extract triglyceride which was then saponified with potassium hydroxide to give glycerol. The glycerol was oxidized by using sodium salt of methaperiodic acid to convert it into formaldehyde. Color of the test solution was developed by acetylacetone and the optical density at 420 mμ was determined. (b) Determination of phospholipid: "Phospholipid Test Wako", a reagent available from Wako Junyaku K.K., Japan, was used for the determination of phospholipid in the following manner according to a similar manner to that described in "Rinsho Byori", Vol. 17, page 389 (1969), Japan, by Atsuo […] et al. Trichloroacetic acid was added to the serum to give precipitates of lipoprotein which were then added with sulfuric acid and potassium permanganate to form phosphoric acid. Color of the test solution was developed by ammonium molybdate and the optical density was determined at 660 mμ. (c) Determination of free fatty acid: Laurell's method [CLin. Chim. Acta. 16, 57 (1967)] was used for determination in the following manner. […] After shaking for 5 minutes, the solution was centrifuged. 5 Ml of the supernatant was put into another tube and was added with 2 ml of copper reagent. […] The optical density at 550 mμ was determined.

[3] = test system: hyperlipemia induced by Triton; experiment: Effect on hyperlipemia induced by Triton in rats: activity in the increasing phase; format: in vivo, rats (male Wistar strain); conditions: for activity in the developing phase (in words): Clofibrate, Compounds 1 and 2 compared with each other; for Cholesterol / Cholesterol, Ratio of decrease / Triglyceride / Triglyceride, Ratio of decrease: serum, increasing phase, 200 mg/kg oral, 20 hours
Experimental: (§3) (4) Effect on hyperlipemia induced by Triton in rats:
(i) Activity in the increasing phase:
(§4) 3 Groups, each consisting of 9 rats (male Wistar strain, weight -- 200 to 240 g) fasted for 24 hours were used for this test. Each rat was administered intravenously with 200 mg/kg of Triton (WR-1339), followed by oral administration of 200 mg/kg of the compounds shown in Table 6. After 20 hours from the administration, the blood samples were collected by decapitation. Cholesterol and triglyceride in the serum were determined in a similar manner to that used in (2, ii) to give the results shown in Table 6.

[4] = test system: hyperlipemia induced by Triton; experiment: Effect on hyperlipemia induced by Triton in rats: activity in the decreasing phase; format: in vivo, rats (male Wistar strain); conditions: for Cholesterol / Cholesterol, Ratio of decrease / Triglyceride / Triglyceride, Ratio of decrease: serum, decreasing phase, 200 mg/kg oral 25 hours after Triton, sampled at 30 hours; for activity in the decreasing phase (in words): compared with Clofibrate
Experimental: as §3, §4
(II) Activity in the decreasing phase:
Hyperlipemia occurred by administering Triton (WR-1339) in a similar manner to that in (i). After 25 hours, 200 mg/kg of the compounds were orally administered to the rats. After 30 hours from the injection of Triton, the blood samples were collected by decapitation.

[5] = test system: glycerol induced hyperlipemia; experiment: Lipid lowering effects on glycerol induced hyperlipemia in rats; format: in vivo, rats (male Wistar strain); conditions: 0.25% in diet; for Cholesterol / Cholesterol, Ratio of decrease / Triglyceride / Triglyceride, Ratio of decrease: serum, 15% glycerol in water
Experimental: (5) Lipid lowering effects on glycerol induced hyperlipemia in rats: The test was carried out in a similar method to that by […] et al [Life Science, 3, 1021 (1964)] . A group consisting of 10 rats (male Wistar strain, weight - 190 to 210 g) was used for each of the test and control groups. Hyperlipemia occurred by feeding the rats ad libitum with water containing 15% (by volume) of glycerol. […] After this, the blood samples were collected by decapitation and the serum was separated by centrifugation.

[6] = test system: cholesterol and triglyceride in the serum; experiment: Lipid lowering activity in cynomolgus monkeys; format: in vivo, cynomolgus monkeys (male, born in Malaysia); conditions: 100 mg/kg/day oral, 10 days; for Decrease Ratio of Cholesterol / Decrease Ratio of Triglyceride: average of 3 times cross-over
Experimental: (6) Lipid lowering activity in cynomolgus monkeys:
6 cynomolgus monkeys (male, born in Malaysia, weight -- 2.5 to 3.9 kg) were used for this test. All monkies were breeded in individual cages at a temperature from 23° to 25° C. and fed with a solid diet for monkey (available from Oriental Yeast K.K., Japan) and sweet potatoes every morning and with apples and bananas from time to time. The monkeys were divided into 3 groups, each consisting of 2 monkeys, to orally and compulsively administer the test compound in an amount of 100 mg/kg/day once in every morning for 10 days. At 11 days after the first administration, before feeding the diet in early morning blood samples were collected from the saphenae of the monkeys to determine cholesterol and triglyceride in a similar manner to that described above. The ratio of lowering cholesterol (RCL) or triglyceride (RLT) was calculated by the following formula. [formula] wherein A is the average amount of the cholesterol or triglyceride in the serum before administration, and B is the corresponding amont after administration for 10 days.
After an interval of 5 weeks, another compound was administered to determine cholesterol or triglyceride in a similar manner to that described above. After a further interval of 5 weeks, a similar procedure was repeated by using another compound to determine cholesterol or triglyceride.

[7] = oral administration, after one week, read-out: Acute Toxicity (LD50), A
[8] = ip, intraperitoneal administration, after one week, read-out: Acute Toxicity (LD50), B
[9] = oral administration, after one week, read-out: Acute Toxicity (LD50), C

Row | SMILES | LD50 at 168 h (Acute toxicity in mice; [7]) [mg/kg] | inhibition in vivo at 100 mg/kg ([1]; po, 43 h) [%] | B - Ratio of decrease of liver weight (Cholesterol in the serum) [%] | C - Ratio of decrease of cholesterol (Cholesterol in the serum) [%] | D - Ratio of increase of liver weight (Cholesterol in the serum) [%] | A - Ratio of decrease of triglyceride [2] [%] | B - Ratio of decrease of phospholipid [2] [%] | C - Ratio of decrease of free fatty acid [2] [%] | activity in the developing phase (in words) [3] | Cholesterol [3] [mg/dL] | Cholesterol, Ratio of decrease [3] [%] | Triglyceride [3] [mg/dL] | Triglyceride, Ratio of decrease [3] [%] | Cholesterol [4] [mg/dL] | Cholesterol, Ratio of decrease [4] [%] | Triglyceride [4] [mg/dL] | Triglyceride, Ratio of decrease [4] [%] | activity on lowering triglyceride and cholesterol (in words) [5] | Cholesterol [5] [mg/dL] | Cholesterol, Ratio of decrease [5] [%] | further results
1 | Cc1ccccc1CSC(=O)N[C@@H](Cc1ccccc1)C(=O)O [Compound 20, N-(2-methylbenzylthiocarbonyl)-L-phenylalanine] | > 1000 | 47 | – | – | – | – | – | – | – | – | – | – | – | – | – | – | – | – | – | – | Tonic convulsion (Mouse): +
2 | CCOC(=O)C(C)(C)Oc1ccc(Cl)cc1 [Clofibrate, reference compound] | – | – | 40.1 | 32.3 | 60.1 | 50.1 | 25.0 | 26.7 | substantially equal | 203 | 20.8 | 856 | 36.0 | 138 | 7.5 | 401 | -15.6 | have an activity on lowering triglyceride and cholesterol | 39.1 | 30.6 | LD50 at 168 h (Acute toxicity in mice; ip): 1620 mg/kg; LD50 at 168 h (Acute toxicity in mice; po): 2100 mg/kg; LD50 at 168 h (Acute toxicity in rats; po): > 200 mg/kg; inhibition in vivo at 100 mg/kg ([1]; 100 mg/kg oral, twice (0 and 20 hours after Triton 600 mg/kg i.v.), serum at 43 hours): 40%; Triglyceride [5]: 129 mg/dL; Triglyceride, Ratio of decrease [5]: 74.0%; cholesterol-lowering activity (in words) [6]: have a cholesterol-lowering activity; Decrease Ratio of Cholesterol [6]: 6.7%; Decrease Ratio of Triglyceride [6]: 9.0%
3 | Cc1cccc(CSC(=O)N[C@@H](Cc2ccccc2)C(=O)O)c1 [Compound 22, N-(3-methylbenzylthiocarbonyl)-L-phenylalanine] | > 1000 | 46 | – | – | – | – | – | – | – | – | – | – | – | – | – | – | – | – | – | – | Tonic convulsion (Mouse): +
4 | COC(=O)[C@H](Cc1ccccc1)NC(=O)SCc1ccc(C)cc1 [Compound 2, N-(4-methylbenzylthiocarbonyl)-L-phenylalanine methylester] | > 4000 | 38 | 8.2 | 17.5 | 3.9 | 2.1 | 10.9 | 21.8 | substantially equal | 202 | 21.3 | 729 | 45.5 | 116 | 22.2 | 205 | 40.9 | have an activity on lowering triglyceride and cholesterol | 47.5 | 15.7 | LD50 at 168 h (Acute toxicity in mice; [8]): > 100 mg/kg; LD50 at 168 h (Acute toxicity in rats; [9]): > 900 mg/kg; lowering activity on lipids other than cholesterol (in words) [2]: have a lowering activity on lipids other than cholesterol; activity in the decreasing phase (in words) [4]: superior to that of Clofibrate; Triglyceride [5]: 261 mg/dL; Triglyceride, Ratio of decrease [5]: 41.3%; cholesterol-lowering activity (in words) [6]: have a cholesterol-lowering activity; Decrease Ratio of Cholesterol [6]: 9.7%; Decrease Ratio of Triglyceride [6]: -7.3%
5 | Cc1ccc(CSC(=O)N[C@@H](Cc2ccccc2)C(=O)O)cc1 [Compound 1, N-(4-methylbenzylthiocarbonyl)-L-phenylalanine] | > 4000 | 55 | 14.8 | 26.1 | 33.1 | 42.0 | 13.8 | 27.0 | substantially equal | 198 | 22.7 | 940 | 29.7 | 103 | 30.7 | 141 | 59.4 | have an activity on lowering triglyceride and cholesterol | 44.5 | 21.0 | LD50 at 168 h (Acute toxicity in mice; [8]): > 100 mg/kg; LD50 at 168 h (Acute toxicity in rats; [9]): > 200 mg/kg; lowering activity on lipids other than cholesterol (in words) [2]: have a lowering activity on lipids other than cholesterol; activity in the decreasing phase (in words) [4]: superior to that of Clofibrate; Triglyceride [5]: 148 mg/dL; Triglyceride, Ratio of decrease [5]: 70.0%; cholesterol-lowering activity (in words) [6]: have a cholesterol-lowering activity; Decrease Ratio of Cholesterol [6]: 12.2%; Decrease Ratio of Triglyceride [6]: 10.8%
